Assay results published in patent US9440957B2, “Compounds and compositions for modulating EGFR Activity” (Novartis AG, priority 2012, dated 2016).
Read-outs that look alike come from different tables or passages of the source.

Legend:
[1] = molecular target: human EGFR WT (NIH/3T3 cells, EGF-induced) (Homo sapiens, UniProt P00533); assay: EGFR target modulation in engineered NIH/3T3 cell lines (phospho-EGFR Y1068 AlphaLISA), EGFR WT; format: cell-based; settings: engineered NIH/3T3 cells, read-out: NIH3T3 IC50 (μM) EGFR (WT)
Chain of human EGFR WT (NIH/3T3 cells, EGF-induced) (P00533 25-1210): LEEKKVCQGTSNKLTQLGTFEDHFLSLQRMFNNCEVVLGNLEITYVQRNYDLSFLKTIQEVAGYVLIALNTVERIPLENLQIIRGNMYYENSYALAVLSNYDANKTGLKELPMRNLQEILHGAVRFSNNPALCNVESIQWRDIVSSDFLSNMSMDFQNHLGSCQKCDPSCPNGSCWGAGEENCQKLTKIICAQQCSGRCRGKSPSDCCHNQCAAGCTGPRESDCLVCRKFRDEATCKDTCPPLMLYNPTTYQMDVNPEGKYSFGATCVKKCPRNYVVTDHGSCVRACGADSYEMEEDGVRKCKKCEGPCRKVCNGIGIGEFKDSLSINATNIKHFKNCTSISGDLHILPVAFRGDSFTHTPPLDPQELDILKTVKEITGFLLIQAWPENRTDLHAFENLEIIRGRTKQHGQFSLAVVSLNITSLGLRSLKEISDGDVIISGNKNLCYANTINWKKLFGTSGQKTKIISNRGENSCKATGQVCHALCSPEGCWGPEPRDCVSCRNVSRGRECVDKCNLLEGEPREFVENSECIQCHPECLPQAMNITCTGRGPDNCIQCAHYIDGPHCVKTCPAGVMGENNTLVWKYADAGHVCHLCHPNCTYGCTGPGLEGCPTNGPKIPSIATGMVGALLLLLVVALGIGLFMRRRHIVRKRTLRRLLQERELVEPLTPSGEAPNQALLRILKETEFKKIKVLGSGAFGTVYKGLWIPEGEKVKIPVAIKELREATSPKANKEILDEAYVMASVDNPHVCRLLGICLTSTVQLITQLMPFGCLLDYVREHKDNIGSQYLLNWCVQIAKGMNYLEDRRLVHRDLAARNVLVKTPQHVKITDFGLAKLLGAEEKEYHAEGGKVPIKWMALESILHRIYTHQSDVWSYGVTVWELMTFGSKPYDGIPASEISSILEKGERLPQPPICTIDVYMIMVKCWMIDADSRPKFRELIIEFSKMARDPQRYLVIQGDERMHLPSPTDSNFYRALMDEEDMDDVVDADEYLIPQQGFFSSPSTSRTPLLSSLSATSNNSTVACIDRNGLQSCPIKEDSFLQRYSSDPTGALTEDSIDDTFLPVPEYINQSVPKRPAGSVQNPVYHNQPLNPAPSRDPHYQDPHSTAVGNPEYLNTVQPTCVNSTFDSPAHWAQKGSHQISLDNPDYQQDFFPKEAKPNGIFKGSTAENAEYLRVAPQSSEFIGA
Procedure: (§1) EGFR Target Modulation in Engineered NIH/3T3 Cell Lines Tissue Culture.
(§2) The cells were harvested with 0.05% Trypsin/EDTA (Hyclone #SH30236.01), re-suspended in 5% FBS/DMEM Pen/Strep without Puromycin and plated at 9,000 cells per well in 50 μl of media in a 384-well black plate with clear bottoms (Greiner #789068G). The cells were allowed to incubate overnight in a 37° C., 5% CO2 humidified tissue culture incubator. A 12-point test compound curve was prepared by serial diluting a 10 μM stock 1:3 in DMSO in a 384-well compound plate (Greiner #789201L). The serial diluted compounds were transferred to the plate containing cells by using a 50 nl Pin Head device (Perkin Elmer) and the cells were placed back in the incubator for 3 hours. Only the EGFR WT-expressing cells were induced with 50 ng/ml EGF (Preprotech #AF-100-15) for 5 minutes before lysis. […] The plates were shaken at 4° C. for 5 minutes with foil top at maximum speed. […] The plates were sealed with a foil top and frozen at −80° C. and thawed when needed.
(§3) The frozen aliquots were thawed and briefly centrifuged. All antibodies and beads were diluted in 1× AlphaLISA HiBlock Buffer (PE #AL004C). […] Goat anti-total EGFR (R&D Systems #AF231) was added and allowed to equilibrate for 1 hour at room temperature at 1 nM final concentration.
(§4) With these parameters, the IC50's for each compound in each cell line was calculated using non-linear curve fitting analysis.

[2] = molecular target: human EGFR L858R/T790M (NIH/3T3 cells) (Homo sapiens, UniProt P00533, L858R/T790M); assay: EGFR target modulation in engineered NIH/3T3 cell lines (phospho-EGFR Y1068 AlphaLISA), EGFR L858R/T790M; format: cell-based; settings: engineered NIH/3T3 cells, read-out: NIH3T3 IC50 (μM) EGFR (L858R/T790M)
Chain of human EGFR L858R/T790M (NIH/3T3 cells) (P00533 25-1210 T790M/L858R): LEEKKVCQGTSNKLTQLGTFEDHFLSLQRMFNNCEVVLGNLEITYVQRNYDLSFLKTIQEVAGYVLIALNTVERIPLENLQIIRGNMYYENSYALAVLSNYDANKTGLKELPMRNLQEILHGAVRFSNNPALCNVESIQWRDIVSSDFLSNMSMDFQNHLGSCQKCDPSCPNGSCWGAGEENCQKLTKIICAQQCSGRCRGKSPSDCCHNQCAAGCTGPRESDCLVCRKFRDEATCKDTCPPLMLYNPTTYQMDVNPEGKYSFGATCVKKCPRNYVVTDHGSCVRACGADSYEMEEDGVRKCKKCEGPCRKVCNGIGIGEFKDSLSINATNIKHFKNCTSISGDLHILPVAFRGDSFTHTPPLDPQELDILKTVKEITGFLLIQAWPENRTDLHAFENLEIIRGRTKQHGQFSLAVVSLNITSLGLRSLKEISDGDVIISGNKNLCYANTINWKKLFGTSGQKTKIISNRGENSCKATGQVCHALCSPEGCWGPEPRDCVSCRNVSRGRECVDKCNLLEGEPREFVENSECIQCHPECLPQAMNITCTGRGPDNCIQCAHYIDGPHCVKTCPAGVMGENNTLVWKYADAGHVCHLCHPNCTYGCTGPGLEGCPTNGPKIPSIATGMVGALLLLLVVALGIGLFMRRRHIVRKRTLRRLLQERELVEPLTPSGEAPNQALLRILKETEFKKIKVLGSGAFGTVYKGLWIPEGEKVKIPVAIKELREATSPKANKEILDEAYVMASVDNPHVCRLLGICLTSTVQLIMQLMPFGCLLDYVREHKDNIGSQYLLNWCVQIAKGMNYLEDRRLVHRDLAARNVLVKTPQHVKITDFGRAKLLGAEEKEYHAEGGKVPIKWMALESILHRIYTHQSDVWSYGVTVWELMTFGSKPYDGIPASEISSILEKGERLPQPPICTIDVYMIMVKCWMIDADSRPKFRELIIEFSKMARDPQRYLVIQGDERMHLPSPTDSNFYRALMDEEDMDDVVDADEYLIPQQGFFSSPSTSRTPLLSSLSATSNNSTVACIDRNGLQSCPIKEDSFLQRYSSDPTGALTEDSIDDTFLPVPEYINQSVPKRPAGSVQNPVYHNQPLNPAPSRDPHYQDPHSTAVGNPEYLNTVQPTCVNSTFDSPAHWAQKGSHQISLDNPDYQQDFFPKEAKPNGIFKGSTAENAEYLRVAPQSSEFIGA
Procedure: as §1, §2, §3, §4

EGFR(L858R/T790M) = molecular target: T1, EGFR(L858R/T790M) (Homo sapiens, UniProt P00533, L858R/T790M); assay: EGFR biochemical assay (HTRF), IC50 determinations
T1 construct: purchased from Carna (GST-a.a. 669-1210)
T1 sequence (P00533 669-1210 T790M/L858R): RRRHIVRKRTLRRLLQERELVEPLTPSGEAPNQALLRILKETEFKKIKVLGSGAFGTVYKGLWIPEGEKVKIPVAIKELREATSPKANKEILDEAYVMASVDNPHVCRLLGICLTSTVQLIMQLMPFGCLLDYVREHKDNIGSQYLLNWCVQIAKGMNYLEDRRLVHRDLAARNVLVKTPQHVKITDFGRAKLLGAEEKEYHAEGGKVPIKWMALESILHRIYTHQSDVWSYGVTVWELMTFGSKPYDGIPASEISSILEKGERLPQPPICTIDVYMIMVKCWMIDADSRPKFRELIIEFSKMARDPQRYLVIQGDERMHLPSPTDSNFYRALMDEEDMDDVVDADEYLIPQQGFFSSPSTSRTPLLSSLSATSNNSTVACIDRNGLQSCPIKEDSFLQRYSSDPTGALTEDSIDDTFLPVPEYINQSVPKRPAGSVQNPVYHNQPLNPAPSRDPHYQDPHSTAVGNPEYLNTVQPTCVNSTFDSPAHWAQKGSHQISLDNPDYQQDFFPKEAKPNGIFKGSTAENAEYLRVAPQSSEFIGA
Procedure: All EGFR biochemical assays were carried out by HTRF method. […] The substrate peptide Biotin-TK-peptide was purchased from Cis-Bio. […] All reactions were carried out at room temperature in white ProxiPlate™ 384-well Plus plates (PerkinElmer) and were quenched with 5 μL of 0.2 M EDTA at 60 min. Five L of the detection reagents (2.5 ng PT66K and 0.05 μg SAXL per well) were added, the plates were incubated at room temperature for 1 h and then read in EnVision reader. […] For no-preincubation condition, the compounds were added to the assay solution containing ATP and peptide, and the reaction was initiated by addition of enzyme. For pre-incubation conditions, the compounds were added to the assay solution containing enzyme and peptide, and pre-incubated at room temperature for desired period of time, then the reaction was initiated by addition of ATP.

[3] = molecular target: human EGFR L858R (NIH/3T3 cells) (Homo sapiens, UniProt P00533, L858R); assay: EGFR target modulation in engineered NIH/3T3 cell lines (phospho-EGFR Y1068 AlphaLISA), EGFR L858R; format: cell-based; settings: engineered NIH/3T3 cells, read-out: NIH3T3 IC50 (μM) EGFR (L858R)
Chain of human EGFR L858R (NIH/3T3 cells) (P00533 25-1210 L858R): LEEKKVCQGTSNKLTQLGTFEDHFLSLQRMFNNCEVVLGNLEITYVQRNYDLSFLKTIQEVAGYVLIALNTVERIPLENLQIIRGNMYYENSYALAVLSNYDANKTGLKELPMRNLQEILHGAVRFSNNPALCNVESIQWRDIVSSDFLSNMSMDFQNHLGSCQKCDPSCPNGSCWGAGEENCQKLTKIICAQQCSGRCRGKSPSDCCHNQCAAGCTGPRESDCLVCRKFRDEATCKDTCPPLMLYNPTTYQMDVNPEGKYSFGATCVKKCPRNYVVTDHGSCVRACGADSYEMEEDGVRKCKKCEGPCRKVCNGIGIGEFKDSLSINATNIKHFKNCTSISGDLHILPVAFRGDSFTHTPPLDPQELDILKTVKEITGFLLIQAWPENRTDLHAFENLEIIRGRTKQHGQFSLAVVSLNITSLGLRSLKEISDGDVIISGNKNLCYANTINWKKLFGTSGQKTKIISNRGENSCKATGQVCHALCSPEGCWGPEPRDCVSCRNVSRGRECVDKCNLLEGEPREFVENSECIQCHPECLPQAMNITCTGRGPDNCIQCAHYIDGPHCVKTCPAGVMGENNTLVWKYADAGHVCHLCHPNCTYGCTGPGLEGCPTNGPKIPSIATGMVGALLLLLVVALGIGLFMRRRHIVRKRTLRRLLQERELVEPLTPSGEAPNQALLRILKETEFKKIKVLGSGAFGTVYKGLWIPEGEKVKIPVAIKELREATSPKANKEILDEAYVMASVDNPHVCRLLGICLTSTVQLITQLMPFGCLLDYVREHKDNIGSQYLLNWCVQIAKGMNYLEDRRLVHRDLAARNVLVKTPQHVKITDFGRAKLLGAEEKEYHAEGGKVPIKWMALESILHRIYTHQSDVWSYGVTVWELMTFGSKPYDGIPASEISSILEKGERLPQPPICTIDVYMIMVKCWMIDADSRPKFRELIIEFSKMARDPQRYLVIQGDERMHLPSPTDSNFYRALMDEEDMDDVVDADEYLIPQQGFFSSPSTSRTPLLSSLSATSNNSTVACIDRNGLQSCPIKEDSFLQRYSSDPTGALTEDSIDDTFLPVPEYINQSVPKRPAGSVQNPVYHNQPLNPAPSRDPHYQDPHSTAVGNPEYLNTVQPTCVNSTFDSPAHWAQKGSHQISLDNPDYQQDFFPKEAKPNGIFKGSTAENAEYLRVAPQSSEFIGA
Procedure: as §1, §2, §3, §4

[4] = EGFR (L858R/T790M) with 90 min pre-incubation, read-out: IC50 (μM) Column B
[5] = EGFR (L858R/T790M) with no pre-incubation, read-out: IC50 (μM) Column A

SMILES | IC50 [1] | IC50 [2] | IC50 (EGFR(L858R/T790M); [4]) | IC50 (EGFR(L858R/T790M); [5]) | IC50 [3]
C=C(CN1CCOCC1)C(=O)N1CCCC[C@@H](n2c(NC(=O)c3ccnnc3)nc3cccc(C)c32)C1 [Example 17-93] | 4.2 µM | 0.35 µM | 0.059 µM | 0.39 µM | 0.281 µM
C=CC(=O)N1CCCC[C@@H](n2c(NC(=O)c3cccc(C(F)(F)F)c3)nc3cccc(C(=O)OC)c32)C1 [Example 17-96] | 1.98 µM | 0.004 µM | 0.011 µM | 0.106 µM | 0.016 µM
Cc1cccc2nc(NC(=O)c3ccnc(OC(F)(F)F)c3)n([C@@H]3CCCCN(C(=O)/C=C/CN(C)C)C3)c12 [Example 17-102] | 0.047 µM | 0.002 µM | < 0.001 µM | 0.002 µM | 0.001 µM
Cc1cccc2nc(NC(=O)c3cc(Cl)nc(OC(F)(F)F)c3)n([C@@H]3CCCCN(C(=O)/C=C/CN(C)C)C3)c12 [Example 17-104] | 0.61 µM | 0.02 µM | < 0.001 µM | 0.018 µM | 0.023 µM
C=CC(=O)N1CCC[C@@H](n2c(NC(=O)c3cccc(C(F)(F)F)c3)nc3cc(C(=O)OC)ccc32)C1 [Example 17-110] | > 10 µM | 0.46 µM | 0.119 µM | 10.8 µM | 4.7 µM
C=CC(=O)N1CCCCC(n2c(NC(=O)c3ccccc3)nc3cccc(C(=O)N4CCS(=O)(=O)CC4)c32)C1 (centres unmarked) [Example 17-115] | > 10 µM | 0.165 µM | 0.013 µM | 3.5 µM | 1.6 µM
CN(C)C/C=C/C(=O)N1CCCCC(n2c(NC(=O)c3cccc(C(F)(F)F)c3)nc3cc(CO)cc(C#N)c32)C1 (centres unmarked) [Example 17-116] | 0.47 µM | 0.008 µM | < 0.001 µM | 0.011 µM | 0.019 µM
C=CC(=O)N1CCC[C@@H](n2c(NC(=O)c3cccc(C(F)(F)F)c3)nc3cc(CN4C[C@@H](O)[C@H](O)C4)ccc32)C1 [Example 17-120] | > 10 µM | 0.86 µM | 0.028 µM | 0.69 µM | 8.2 µM
C=CC(=O)N1CCC[C@@H](n2c(NC(=O)c3cccc(C(F)(F)F)c3)nc3cc(CO)ccc32)C1 [Example 17-121] | > 10 µM | 0.016 µM | < 0.001 µM | 0.127 µM | 0.259 µM
C=CC(=O)N1CCC[C@@H](n2c(NC(=O)c3cccc(C(F)(F)F)c3)nc3cc(CN4CCC(F)(F)C4)ccc32)C1 [Example 17-125] | > 7.6 µM | 0.013 µM | 0.003 µM | 0.068 µM | 0.087 µM
C=CC(=O)N1CCCC[C@@H](n2c(NC(=O)c3ccccc3)nc3cc(CN(C)CCS(C)(=O)=O)cc(C)c32)C1 [Example 17-127] | 0.099 µM | 0.001 µM | < 0.001 µM | 0.002 µM | 0.004 µM
C=CC(=O)N1CCCC[C@@H](n2c(NC(=O)c3ccccc3)nc3cc(COCCOC)cc(C)c32)C1 [Example 17-128] | 0.186 µM | 0.002 µM | < 0.001 µM | 0.007 µM | 0.006 µM
C=CC(=O)N1CCCC[C@@H](n2c(NC(=O)c3ccccc3)nc3cccc(COCCOC)c32)C1 [Example 17-130] | 1.41 µM | 0.016 µM | 0.006 µM | 0.119 µM | 0.094 µM
C=CC(=O)N1CCCC[C@@H](n2c(NC(=O)c3ccccc3)nc3cccc(CO)c32)C1 [Example 17-131] | 0.311 µM | 0.002 µM | < 0.001 µM | 0.005 µM | 0.01 µM
C=CC(=O)N1CCCC[C@@H](n2c(NC(=O)c3ccccc3)nc3cccc(CN(C)CCS(C)(=O)=O)c32)C1 [Example 17-133] | 1.29 µM | 0.006 µM | 0.001 µM | 0.018 µM | 0.041 µM
C=CC(=O)N1CCCCC(n2c(NC(=O)c3ccccc3)nc3cccc(C(=O)NCCC(=O)OC)c32)C1 (centres unmarked) [Example 17-134] | > 10 µM | 0.073 µM | 0.01 µM | 0.93 µM | 0.63 µM

SMILES | IC50 [1] | IC50 [2] | IC50 (EGFR(L858R/T790M); [4]) | IC50 (EGFR(L858R/T790M); [5]) | IC50 [3]
C=CC(=O)N1CCCCC(n2c(NC(=O)c3ccccc3)nc3cccc(C(=O)NCC(=O)OC)c32)C1 (centres unmarked) [Example 17-135] | > 10 µM | 0.045 µM | 0.008 µM | 0.62 µM | 0.4 µM
C=CC(=O)N1CCCCC(n2c(NC(=O)c3ccccc3)nc3cccc(C(=O)NCCC(=O)O)c32)C1 (centres unmarked) [Example 17-136] | 8.2 µM | 6.5 µM | 0.03 µM | 1.76 µM | > 10 µM
C=CC(=O)N1CCCCC(n2c(NC(=O)c3ccccc3)nc3cccc(C(=O)NCC(=O)O)c32)C1 (centres unmarked) [Example 17-137] | > 10 µM | 7.9 µM | 0.044 µM | 1.55 µM | > 10 µM
C=CC(=O)N1CCCCC(n2c(NC(=O)c3ccccc3)nc3cccc(-c4nc(C)no4)c32)C1 (centres unmarked) [Example 17-138] | > 10 µM | 0.067 µM | 0.009 µM | 0.147 µM | 0.45 µM
C=CC(=O)N1CCCCC(n2c(NC(=O)c3ccccc3)nc3cccc(C(=O)NCCS(C)(=O)=O)c32)C1 (centres unmarked) [Example 17-139] | > 9.1 µM | 0.043 µM | 0.005 µM | 0.147 µM | 0.305 µM
C=CC(=O)N1CCCCC(n2c(NC(=O)c3ccccc3)nc3cccc(C(=O)N4C[C@@H](O)[C@H](O)C4)c32)C1 (some centres unmarked) [Example 17-140] | 7.9 µM | 0.181 µM | 0.043 µM | 0.94 µM | 1.64 µM
C=CC(=O)N1CCOCC(n2c(NC(=O)c3ccccc3)nc3cccc(-c4nc(C)no4)c32)C1 (centres unmarked) [Example 17-141] | 7.8 µM | 0.097 µM | 0.01 µM | 0.247 µM | 0.68 µM
CN(C)C/C=C/C(=O)N1CCC[C@@H](n2c(NC(=O)c3cccc(C(F)(F)F)c3)nc3cc(CO)ccc32)C1 [Example 17-143] | > 10 µM | 0.046 µM | 0.014 µM | 0.233 µM | 0.313 µM
C=CC(=O)N1CCCC[C@@H](n2c(NC(=O)c3ccnc(C)c3)nc3cc(CN4CC[C@H](O)C4)cc(C)c32)C1 [Example 17-146] | 0.137 µM | 0.004 µM | < 0.001 µM | 0.002 µM | 0.003 µM
C=CC(=O)N1CCCC(n2c(NC(=O)c3cccc(C(F)(F)F)c3)nc3c2CCN(C(=O)OC)C3)C1 (centres unmarked) [Example 17-167] | > 10 µM | 0.14 µM | 0.128 µM | 2.62 µM | 4.8 µM
C=CC(=O)N1CCCC(n2c(NC(=O)c3cccc(C(F)(F)F)c3)nc3c2CCN(S(C)(=O)=O)C3)C1 (centres unmarked) [Example 17-168] | > 2.77 µM | 0.072 µM | 0.095 µM | 1.11 µM | 0.6 µM
C=CC(=O)N1CCCC(n2c(NC(=O)c3cccc(C(F)(F)F)c3)nc3c2CCN(C(C)=O)C3)C1 (centres unmarked) [Example 17-169] | 8.2 µM | 0.14 µM | 0.186 µM | 1.75 µM | 1.75 µM
C=CC(=O)N1CCCC(n2c(NC(=O)c3cccc(C(F)(F)F)c3)nc3c2CN(C(=O)OC)CC3)C1 (centres unmarked) [Example 17-170] | > 10 µM | 0.01 µM | 0.006 µM | 0.66 µM | 0.39 µM
C=CC(=O)N1CCCC(n2c(NC(=O)c3cccc(C(F)(F)F)c3)nc3c2CN(S(C)(=O)=O)CC3)C1 (centres unmarked) [Example 17-171] | 9.9 µM | 0.16 µM | 0.316 µM | 2.4 µM | 1.86 µM
C=CC(=O)N1CCCC(n2c(NC(=O)c3cccc(C(F)(F)F)c3)nc3c2CN(C(C)=O)CC3)C1 (centres unmarked) [Example 17-172] | 8.7 µM | 0.173 µM | 0.268 µM | 1.75 µM | 1.4 µM
